Results as given in US20230107216A1, “PANTETHEINE DERIVATIVES AND USES THEREOF” (Comet Therapeutics, Inc., priority 2018, published 2023).
Read-outs that look alike come from different tables or passages of the source.

How the values were obtained:
Format in all cases: cell-based
[1] = tested on: Propionic Acidemia (PA) primary fibroblasts GM00371; assay: Mitochondrial respiration, XFe96 Extracellular Flux Analyzer (OCR/ECAR), PA fibroblasts GM00371; details: Homo sapiens, Fibroblast
[2] = tested on: HepG2 cells; assay: Glucose uptake (Glucose Uptake-Glo); details: Homo sapiens, read-out: % increase in Glucose Uptake
[3] = tested on: HepG2 cells; assay: Mitochondrial membrane potential (MITO-ID MP detection Kit); details: Homo sapiens, 168 h, 50 uM, 7 days, read-out: % decrease in Mitochondrial Membrane Potential
Experimental: HepG2 cells (ATCC, HB-8065) were cultured (5% CO2 at 37° C.) and plated in Poly-D-Lysine 384-Well plate (Corning, 356663) at a density of 160000 cells/mL in 50 μL/well. Culture and assay media consisted of DMEM (Gibco, 11995-065) supplemented with 1% Penicillin-Streptomycin and 10% FBS (Hyclone, SV30087.03).
MITO-ID® MP detection Kit (ENZ-51018) was used and manufacturer instructions followed. Cells were allowed to settle for 30 min at room temperature and further incubated overnight (37° C. and 5% CO2) for adherence. Next day, test compounds (50-10 μM) and vehicle DMSO (0.2%) were added at the recommended volumes to the 384-well plate for 7 days without media change using a Tecan compound dispenser. All the solutions and wash buffers were prepared and dispensed according to manufacturer's volumes for a 384-well plate format.

[4] = tested on: Methylmalonic Acidemia (MMA) primary fibroblasts Tsi 5224; assay: Mitochondrial respiration, XFe96 Extracellular Flux Analyzer (OCR/ECAR), MMA fibroblasts Tsi 5224; details: Homo sapiens, Fibroblast, MMA Tsi 5224, assay condition A (10 mM glucose, 2 mM L-glutamine, 1 mM pyruvate, 10% FBS), read-out: Increase in Maximal Respiratory Capacity AUC;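 also: relative to vehicle DMSO control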
Experimental: The effect of the compounds of the present disclosure on mitochondrial respiration was measured with a XFe96 Extracellular Flux Analyzer (Seahorse Bioscience, Agilent Technologies) and Oxygen consumption Rate (OCR) and Extracellular acidification rate (ECAR) determined.
Cell culture and treatments. Primary adherent fibroblasts were cultured in minimum essential medium (MEM) (Gibco, 25030081) supplemented with 2 mM L-Glutamine (Gibco, 25030081), 15% fetal bovine serum (FBS) (Gibco, 26400044) and 1% penicillin/streptomycin (Gibco, 5140122) at 37° C. and 5% CO2. Cells were collected for either passaging or experiment at ˜70-80% confluence. Cells were obtained by trypsinization and seeded at 20000 cells/well in cell culture microplates (Seahorse Bioscience, 101085-004) and allowed to adhere for 16 hours in culture media.
By profiling different primary cells and/or optimizing their culture media or environmental components one can select cell lines and/or conditions that are appropriate for the biological or disease model. In the present example, 24 hours prior to OCR and ECAR profiling, media was changed to Dulbecco's Modified Eagle Medium (DMEM, Agilent Seahorse 103575-100) with the appropriate supplements for the different primary cells (10 mM glucose, 2 mM L-glutamine, 1 mM pyruvate, 10% FBS; 1 mM glucose, 2 mM L-glutamine, 1 mM pyruvate, 10% FBS; 10 mM glucose, 10% FBS; 5 mM glucose 10% FBS; 1 mM glucose 10% FBS). Cells used in this example were: Propionic Acidemia (PA) (GM00371, GM03590 Coriell Institute for Medical Research, Tsi 6337, Tsi 4626, Tsi 3618 Trans-Hit Bio), Methylmalonic Acidemia (MMA) (GM01673, Coriell Institute for Medical Research, Tsi 5224 Trans-Hit Bio), Branched chain ketoacid dehydrogenase kinase (BCKDK) (GM00612, GM00649 Coriell Institute for Medical Research), Subnormal activation of pyruvate dehydrogenase complex (PDH) (GM01503 Coriell Institute for Medical Research), Very long-chain acyl-CoA dehydrogenase (VLCAD) (GM17475), Leigh Syndrome (LS) (GM03672, GM13411 Coriell Institute for Medical Research), Pyruvate Carboxylase Deficiency (PC) (GM00444 Coriell Institute for Medical Research), Glutaric Acidemia-I (GA) (GM10653), Friedreich's Ataxia (FXN) (GM04078 Coriell Institute for Medical Research, Huntington's disease (HD) (GM21756 Coriell Institute for Medical Research), Ornithine Transcarbamylase Deficiency (OTC) (GM12756 Coriell Institute for Medical Research), Kearns-Sayre Syndrome (KSS) (GM06225 Coriell Institute for Medical Research).
One hour before the assay, the cells were washed with freshly prepared unbuffered serum free-Seahorse XF Assay medium (Seahorse Bioscience, North America, USA, 103575-100) with the same supplements as for the previous 24 hour incubation.
After baseline measurements of OCR, cells were challenged with compounds of the present disclosure at different concentrations (10 to 50 μM) or vehicle (DMSO, 0.1%) and a post-compound baseline was recorded. OCR was measured after sequentially adding to each well 1 μg/ml oligomycin (inhibitor of ATP synthase Sigma-Aldrich, 753531), then maximal OCR was determined with carbonyl cyanide 4-(trifluoromethoxy) phenylhydrazone (FCCP, Sigma-Aldrich, C2920), (uncoupler of oxidative phosphorylation) and 0.5 μM of rotenone (Sigma-Aldrich, R8875) plus antimycin A (Sigma-Aldrich, A8674) (inhibitors of mitochondrial complex I and III) for determination of rotenone-antimycin insensitive respiration together with Hoechst for nuclear staining in situ when normalized to cell counts. After the analysis and nuclear staining, the XFp microplate was transferred to the Cytation 5, and the nuclear images were captured, the individual nuclei were identified and counted by BioTek Gen5 software. Data were expressed as pmol of O2 per minute and normalized by nuclear staining and baselined to pre-compound addition.
Assay conditions were as stated below.
Assay specifics on assay conditions are indicated below when readouts were normalized to cell counts. […]

Row | Structure (SMILES) | activation at 10 µM [2] | activation at 10 µM [4] | further results
1 | COC(=O)CCC(=O)SCCNC(=O)CCNC(=O)[C@H](OC(C)=O)C(C)(C)COC(C)=O [Compound 214, methyl 4-[(2-[3-[(2R)-2,4-bis(acetyloxy)-3,3-dimethylbutanamido]propanamido]ethyl)sulfanyl]-4-oxobutanoate] | ≥ 20% | – | activation at 50 µM ([1]; assay condition A (10 mM glucose, 2 mM L-glutamine, 1 mM pyruvate, 10% FBS), read-out: Increase in Spare Capacity AUC): ≥ 50%; activation at 50 µM ([1]; assay condition D (1 mM glucose, 10% FBS), read-out: Increase in Spare Capacity AUC): ≥ 10%
2 | CC(=O)SCCNC(=O)CCNC(=O)[C@H](O)C(C)(C)COC(=O)OCC[N+](C)(C)C [Compound 503, [2-([[(3R)-3-[(2-[[2-(acetylsulfanyl)ethyl]carbamoyl]ethyl)carbamoyl]-3-hydroxy-2,2-dimethylpropoxy]carbonyl]oxy)ethyl]trimethylazanium] | – | – | activation at 50 µM ([1]; assay condition A (10 mM glucose, 2 mM L-glutamine, 1 mM pyruvate, 10% FBS), read-out: Increase in Maximal Respiratory Capacity AUC): ≥ 10%; activation at 50 µM ([2]; 50 uM): ≥ 20%
3 | C[C@H](O)CC(=O)SCCNC(=O)CCNC(=O)[C@H](O)C(C)(C)CO [Compound 1246, (2R)-2,4-dihydroxy-N-{2-[(2-{[(3S)-3-hydroxybutanoyl]sulfanyl}ethyl)carbamoyl]ethyl}-3,3-dimethylbutanamide] | – | – | inhibition at 50 µM [3]: > 50%
4 | CC(C(=O)O)C(=O)SCCNC(=O)CCNC(=O)[C@H](O)C(C)(C)CO (stereo partly drawn) [Compound 393] | ≥ 30% | ≥ 10% | –
5 | CC(=O)NCC(=O)O[C@@H](C(=O)NCCC(=O)NCCSC(=O)CCC(=O)O)C(C)(C)CO [Compound 1296, 4-[(2-[3-[(2R)-2-[(2-acetamidoacetyl)oxy]-4-hydroxy-3,3-dimethylbutanamido]propanamido]ethyl)sulfanyl]-4-oxobutanoic acid] | ≥ 10% | – | activation at 10 µM ([1]; assay condition D (1 mM glucose, 10% FBS), 10 μM, read-out: Increase in Spare Capacity AUC): ≥ 30%
6 | CC(=O)SCCNC(=O)CCNC(=O)[C@H](O)C(C)(C)COC(=O)O[C@H](CC(=O)[O-])C[N+](C)(C)C [Compound 183, (12R,18R)-12-hydroxy-13,13-dimethyl-2,7,11,16-tetraoxo-18-((trimethylammonio)methyl)-15,17-dioxa-3-thia-6,10-diazaicosan-20-oate] | ≥ 30% | ≥ 10% | –
